Key:
[1] = system: murine brachial plexus and sciatic nerves; assay: Nerve-specificity screening using direct/topical administration; assay type: in vivo, mouse; conditions: 125 μM, imaged 30 minutes after staining
Description: All reagents were purchased from Sigma Aldrich, Fisher Scientific, TCI, or Ark Pharm. Unless otherwise indicated, all commercially available starting materials were used directly without further purification. Analytical thin layer chromatography (TLC) was performed on Millipore ready-to-use plates with silica gel 60 (F254, 32-63 μm). Flash chromatography was performed on Sorbent Technologies silica gel for column chromatography or on a Biotage Isolera Flash System using SNAP Ultra cartridges. High-resolution mass spectra (HRMS) were measured on a ThermoElectron LTQ-Orbitrap high resolution mass spectrometer with a dedicated Accela HPLC system, or an Agilent 6244 time-of-flight LCMS with diode array detector VL+. LCMS and Purity Characterization Mass-to-charge ratio and purity of the Oxazine compounds were characterized on an Agilent 6244 time-of-flight tandem liquid chromatography mass spectroscopy (LCMS) with diode array detector VL+. Sample (10 μL) was injected into a C18 column (Poroshell 120, 4.6×50 mm, 2.7 micron), and eluted with a solvent system of A (H2O, 0.1% FA) and B (MeCN, 01.% FA) at 0.4 mL/min, from A/B=90/10 to 5/95 over 10 min, maintained at A/B=5/95 for additional 5 min. Ions were detected in positive ion mode by setting the capillary voltage at 4 kV and gas temperature at 350° C. Purity was calculated through area under the curve analysis of the absorbance at 254 nm. UV-Vis Absorption and Fluorescence Spectroscopy. UV-Vis spectra were collected with a Cary 50 UV-Vis spectrophotometer at room temperature, using a 1-cm quartz cuvette. Fluorescence spectra were collected on a Cary Eclipse fluorescence spectrophotometer (Agilent Technologies). All absorbance spectra were reference corrected. Extinction coefficient was calculated from Beer's Law plots of absorbance versus concentration. Fluorescence spectra were corrected for the wavelength dependent response of the R928 photomultiplier tube using a manufacturer generated correction file. Relative quantum yields are reported as the average of multiple measurements using multiple references, including Oxazine 1, Oxazine 170, and Rhodamine 101. Physicochemical Property Calculation. Physicochemical partition coefficients (Log D) values at pH 7.4, number of hydrogen bond donors and acceptors, polar surface area, and the number of rotatable bonds were calculated using Marvin and JChem calculator plugins (ChemAxon, Budapest, Hungary). Nerve-Specificity Screening using Direct/Topical Administration Each compound was screened for its tissue-specificity using a previously published direct/topical administration strategy in murine brachial plexus and sciatic nerves.^1 Each compound from the Oxazine library was formulated in the previously utilized co-solvent formulation (10% DMSO, 5% Kolliphor, 65% serum and 20% phosphate buffered saline) at 125 μM. 100 μL of the formulated Oxazine were incubated on the exposed brachial plexus or sciatic nerve for 5 minutes. The fluorophore containing solution was removed and the area was irrigated with saline 18 times to remove any unbound fluorophore. Co-registered fluorescence and color images were collected of each stained area 30 minutes after Oxazine direct/topical administration using a custom built macroscopic imaging system with 620/60 nm excitation and 700/75 nm bandpass emission filters. Custom written MatLab code was used to analyze the tissue specific fluorescence where regions of interest were selected on the nerve, muscle and adipose tissue using the white light images. These regions of interest were then analyzed on the co-registered matched fluorescence images permitting assessment of the nerve to muscle and nerve to adipose ratios in blinded manner. […]

[2] = system: murine brachial plexus and sciatic nerves; assay: Nerve-specificity screening using systemic administration; assay type: in vivo; conditions: IV, 200 nmol, 4 hours prior to imaging
[3] = UV-Vis absorption and fluorescence spectroscopy of the Oxazine library; assay type: physicochemical; conditions: for Extinction coefficient: Beer's Law plots; for Quantum yield: relative, references Oxazine 1, Oxazine 170, Rhodamine 101
How it was run: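 Absorbance measured at room temperature in 1-cm quartz cuvette, reference corrected; extinction coefficient from Beer's Law plots of absorbance vs concentration. Fluorescence spectra corrected for PMT response; relative quantum yields averaged over multiple measurements against Oxazine 1, Oxazine 170 and Rhodamine 101 references.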

SMILES: CC[N+](CC)=c1ccc2nc3ccc(N4CCCC4)cc3oc-2c1 [LGW03-07, N-ethyl-N-(7-(pyrrolidin-1-yl)-3H-phenoxazin-3-ylidene)ethanaminium]
- nerve specificity (N/M contrast vs control group) via direct administration [1]: negative nerve specificity
- nerve specificity / nerve contrast (N/M vs control group) following systemic administration [2]: positive
- Max Abs [3]: 654 nm
- Max Em [3]: 672 nm
- Max Ex [3]: 660 nm
- Extinction coefficient [3]: 52356 M⁻¹ cm⁻¹
- Quantum yield [3]: 9.28%

SMILES: c1c2c(cc3c1N=c1cc4c(cc1O3)=NCC4)NCC2 [LGW07-55, 2,3,7,8-tetrahydro-1H-dipyrrolo[3,2-b:2′,3′-i]phenoxazin-9-ium]
- nerve specificity (N/M contrast vs control group) via direct administration [1]: positive nerve specificity
- nerve specificity / nerve contrast (N/M vs control group) following systemic administration [2]: negative for nerve contrast
- Max Abs [3]: 619 nm
- Max Em [3]: 634 nm
- Max Ex [3]: 620 nm
- Extinction coefficient [3]: 20163 M⁻¹ cm⁻¹
- Quantum yield [3]: 28.25%

SMILES: CC/N=c1/cc2oc3cc4c(cc3nc-2cc1C)CCN4 [LGW05-85, (Z)—N-(7-methyl-2,3-dihydropyrrolo[3,2-b]phenoxazin-8(1H)-ylidene)ethanaminium]
- nerve specificity (N/M contrast vs control group) via direct administration [1]: positive nerve specificity
- nerve specificity / nerve contrast (N/M vs control group) following systemic administration [2]: negative for nerve contrast
- Max Abs [3]: 613 nm
- Max Em [3]: 640 nm
- Max Ex [3]: 615 nm
- Extinction coefficient [3]: 45382 M⁻¹ cm⁻¹
- Quantum yield [3]: 41.05%

SMILES: CC[N+](CC)=c1ccc2nc3cc(C)c(N)cc3oc-2c1 [LGW06-11, N-(7-amino-8-methyl-3H-phenoxazin-3-ylidene)-N-ethylethanaminium]
- nerve specificity (N/M contrast vs control group) via direct administration [1]: positive nerve specificity
- nerve specificity / nerve contrast (N/M vs control group) following systemic administration [2]: negative for nerve contrast
- Max Abs [3]: 628 nm
- Max Em [3]: 650 nm
- Max Ex [3]: 625 nm
- Extinction coefficient [3]: 31843 M⁻¹ cm⁻¹
- Quantum yield [3]: 2.52%

SMILES: CC1=CC(C)(C)Nc2cc3c(cc21)N=c1cc2c(cc1O3)=NC(C)(C)C=C2C [LGW03-01, 2,2,4,8,10,10-hexamethyl-10,11-dihydro-2H-dipyrido[3,2-b:2′,3′-i]phenoxazin-1-ium]
- nerve specificity (N/M contrast vs control group) via direct administration [1]: positive nerve specificity
- nerve specificity / nerve contrast (N/M vs control group) following systemic administration [2]: negative for nerve contrast
- Max Abs [3]: 677 nm
- Max Em [3]: 695 nm
- Max Ex [3]: 680 nm
- Extinction coefficient [3]: 44453 M⁻¹ cm⁻¹
- Quantum yield [3]: 17.27%

SMILES: CC/N=c1/cc2oc3cc4c(cc3nc-2cc1C)C(C)=CC(C)(C)N4CC [LGW03-57, (Z)—N-(1-ethyl-2,2,4,8-tetramethyl-1,2-dihydro-9H-pyrido[3,2-b]phenoxazin-9-ylidene)ethanaminium]
- nerve specificity (N/M contrast vs control group) via direct administration [1]: positive nerve specificity
- nerve specificity / nerve contrast (N/M vs control group) following systemic administration [2]: negative for nerve contrast
- Max Abs [3]: 661 nm
- Max Em [3]: 680 nm
- Max Ex [3]: 665 nm
- Extinction coefficient [3]: 54072 M⁻¹ cm⁻¹
- Quantum yield [3]: 18.17%

SMILES: CCN(CC)c1cc2oc3cc(=[N+](CC)CC)ccc-3nc2cc1C [LGW03-23, N-(7-(diethylamino)-8-methyl-3H-phenoxazin-3-ylidene)-N-ethylethanaminium]
- nerve specificity (N/M contrast vs control group) via direct administration [1]: positive nerve specificity
- nerve specificity / nerve contrast (N/M vs control group) following systemic administration [2]: negative for nerve contrast
- Max Abs [3]: 664 nm
- Max Em [3]: 690 nm
- Max Ex [3]: 645 nm
- Extinction coefficient [3]: 23099 M⁻¹ cm⁻¹
- Quantum yield [3]: 1.53%

SMILES: CC/N=c1/cc2oc3cc(N(CC)CC)c(C)cc3nc-2cc1C [LGW01-23, (Z)—N-(7-(diethylamino)-2,8-dimethyl-3H-phenoxazin-3-ylidene)ethanaminium]
- nerve specificity (N/M contrast vs control group) via direct administration [1]: positive nerve specificity
- nerve specificity / nerve contrast (N/M vs control group) following systemic administration [2]: negative for nerve contrast
- Max Abs [3]: 645 nm
- Max Em [3]: 635 nm
- Max Ex [3]: 620 nm
- Extinction coefficient [3]: 62445 M⁻¹ cm⁻¹
- Quantum yield [3]: 0.67%

SMILES: CC/N=c1\ccc2nc3ccc(NCC)cc3oc-2c1 [LGW01-21, (E)-N-(7-(ethylamino)-3H-phenoxazin-3-ylidene)ethanaminium]
- nerve specificity (N/M contrast vs control group) via direct administration [1]: positive nerve specificity
- nerve specificity / nerve contrast (N/M vs control group) following systemic administration [2]: negative for nerve contrast
- Max Abs [3]: 617 nm
- Max Em [3]: 634 nm
- Max Ex [3]: 620 nm
- Extinction coefficient [3]: 28745 M⁻¹ cm⁻¹
- Quantum yield [3]: 30.12%

SMILES: CCN1CCc2cc3nc4ccc(=[N+](CC)CC)cc-4oc3cc21 [LGW05-84, N-ethyl-N-(1-ethyl-2,3-dihydropyrrolo[3,2-b]phenoxazin-8(1H)-ylidene)ethanaminium]
- nerve specificity (N/M contrast vs control group) via direct administration [1]: negative nerve specificity
- nerve specificity / nerve contrast (N/M vs control group) following systemic administration [2]: positive
- Max Abs [3]: 643 nm
- Max Em [3]: 675 nm
- Max Ex [3]: 650 nm
- Extinction coefficient [3]: 46048 M⁻¹ cm⁻¹
- Quantum yield [3]: 4.85%

SMILES: CC/N=c1/cc2oc3cc(N)c(C)cc3nc-2cc1C [LGW06-10, (Z)—N-(7-amino-2,8-dimethyl-3H-phenoxazin-3-ylidene)ethanaminium]
- nerve specificity (N/M contrast vs control group) via direct administration [1]: positive nerve specificity
- nerve specificity / nerve contrast (N/M vs control group) following systemic administration [2]: negative for nerve contrast
- Max Abs [3]: 602 nm
- Max Em [3]: 621 nm
- Max Ex [3]: 605 nm
- Extinction coefficient [3]: 55807 M⁻¹ cm⁻¹
- Quantum yield [3]: 26.54%

Reference: US11492359B2, “Near-infrared nerve-sparing fluorophores” (OREGON HEALTH & SCIENCE UNIVERSITY, priority 2018, dated 2022)
